This note sets out measurements from paper PMC10816276 (International Journal of Molecular Sciences, 2024).

Each structure is given as a SMILES string. Some results are limits rather than exact numbers.

Assay [1] deals with T1, Mushroom tyrosinase (mTyr) (Agaricus bisporus, UniProt C7FF04).
T1 construct: purchased Sigma-Aldrich
Put plainly: HPLC analysis of oxidation of L-DOPA catalyzed by mTyr. Format: biochemical. The settings on record: 2 μg·mL^−1 inhibitor, 0.5 mM L-DOPA, 31.25 U·mL^−1 mTyr, 30 °C, 0-30 min. As to the method: The inhibitory effect of 6′-O-caffeoylarbutin on the oxidation of L-DOPA catalyzed by mTyr was studied using Agilent 1200 series HPLC analysis (Palo Alto, CA, USA), with minor modifications to the previous procedure. The experiment was conducted with 0.5 mM L-DOPA as a diphenolase substrate for 31.25 U·mL^−1 mTyr in the absence of an inhibitor. Subsequently, 2 μg·mL^−1 of 6′-O-caffeoylarbutin was added, and the reaction mixture was incubated for 0, 15, and 30 min at 30 °C. Samples (10 μL) were injected after filtration onto the HPLC system equipped with a Capcell pak C18 column (250 × 4.6 mm, 5 μm, Shiseido, Tokyo, Japan) operating at a flow rate of 1.0 mL·min^−1. The column temperature maintained at 30 °C and the detection wavelength was set at 280 nm. The mobile phase was consisted of water (A) and methanol (B), and a gradient elution employed with the following linear gradient for solvent B: 5% (0 min), 20% (10 min), 50% (20 min), 80% (25 min), and 100% (35 min).

Assay [2] deals with T1, Mushroom tyrosinase (mTyr). Put plainly: Fluorescence quenching of mTyr. Format: binding. The source says: Fluorescence quenching can be classified into static quenching and dynamic quenching. Static quenching occurs when quenching agents bind to fluorescent substances, forming complexes that result in quenching. Dynamic quenching, on the other hand, primarily arises from thermal motion and molecular collisions. The plot of F0/F against the concentration of 6′-O-caffeoylarbutin yielded a straight line with a good linear relationship (R^2 = 0.9802). […] Typically, the threshold value for the maximum collisional quenching rate constant between small molecular quenchers and large biomolecules is 2.0 × 10^10 L·(mol·s)^−1. If the calculated quenching rate constant is below this threshold, it indicates a dynamic quenching mechanism. Conversely, if the quenching rate constant exceeds this threshold, the quenching process may involve static quenching.
In the static quenching process, the relationship between fluorescence intensity and quencher concentration can be described by Equation (1). lg[(F0 − F)/F] = lgKa + nlg[Q](1) where F0 and F represent relative fluorescence intensities of the solution without and with the quencher, respectively. Ka represents the apparent binding constant between the enzyme and the quencher, n represents the number of binding sites on each biomacromolecule for the quencher, and [Q] denotes the concentration of the quencher. In this study, a double-logarithmic linear regression analysis of lg[(F0 − F)/F] against lg[Q] was conducted to evaluate the interaction between 6′-O-caffeoylarbutin and mTyr. Figure S5C illustrates the resulting regression line, which provided a slope and intercept for the calculation of Ka and n. The obtained values were determined as (10.79 ± 0.82) × 10^4 L∙mol^−1 and 0.79 ± 0.06, respectively. These findings indicate the formation of a stable complex between 6′-O-caffeoylarbutin and mTyr, involving a single binding site.
The fluorescence quenching role of 6′-O-caffeoylarbutin on mTyr was investigated using a RF-6000 fluorescence spectrophotometer (Shimadzu, Kyoto, Japan) with a xenon flash lamp as a light source, according to the literature with minor alterations. The excitation wavelength was 280 nm, with a scanning wavelength ranging from 290 to 500 nm at 37 °C. The excitation and emission bandwidths were 2.5 nm and 5.0 nm, respectively. A 3 mL mixture containing 2.0 mL of 31.25 U·mL^−1 mTyr solution, 0.5 mL of 6′-O-caffeoylarbutin solution (with 3% dimethyl sulfoxide) at concentrations from 0 to 100 μM, and 0.5 mL of PBS was used to collect the fluorescence intensity curves. The PBS served as the corresponding blank to correct the fluorescence intensities. The fluorescence quenching mechanism between mTyr and 6′-O-caffeoylarbutin was described using the Stern-Volmer Equation (2). (2) F0/F=1+KSVQ=1+Kqτ0[Q] where KSV is the Stern-Volmer quenching constant, [Q] represents the concentration of 6′-O-caffeoylarbutin, Kq is bimolecular quenching rate constant, and τ0 denotes the average lifetime of the fluorescence molecules in the absence of 6′-O-caffeoylarbutin (value is 10^−8 s).

In assay [3] the test system is human immortalized keratinocyte (HaCaT) non-tumor cells. In words: CCK-8 cell proliferation and cytotoxicity assay, HaCaT. Format: cell-based. Here is the method:
I. Cell lines and cell culture. Human melanoma A375 tumor cells and human immortalized keratinocyte (HaCaT) non-tumor cells were obtained from Nanjing Pusheng Biomedical Technology Co., Ltd. (Nanjing, China). The cells (A375/HaCaT) were cultured in Dulbecco’s modified Eagle’s medium (DMEM, Gibco, New York, NY, USA) supplemented with 10% (v/v) fetal bovine serum (FBS, Gibco, New York, NY, USA), and incubated at 37 °C with 5% CO2 in a humidified incubator.
II. Cell viability assay. Cell proliferation and cytotoxicity assays were conducted using the Cell counting kit-8 (CCK-8) on A375 and HaCaT cells. Briefly, the cells were initially seeded in 96-well plates at a density of 4 × 10^4 cells per well and incubated for 24 h at 37 °C with 5% CO2 in a humidified incubator. Each treatment was performed in six duplicate wells. The tested compounds were added at various concentrations, and the cells were then incubated for 72 h. Following the incubation period, CCK-8 solution (Dojindo Laboratories, Kumamoto, Japan) was added to each well, and the plates were further incubated for 2 h. The absorbance of each well at 450 nm was measured using an absorbance microplate reader (BioTek ELx800, Winooski, VT, USA). The assay included negative controls in which cells were treated with ultrapure water and positive controls in which cells were treated with 10 µg·mL^−1 taxol. The percentage of cell growth inhibition was calculated using the following Equation (3). (3) Cell growth inhibition rate [%]=B1−B2/B1−B3×100 where B1 represents the absorbance of a mixture containing cells, medium, and CCK-8 solution, B2 represents the absorbance of a mixture containing cells, medium, CCK-8 solution, and the test compound; and B3 represents a mixture containing medium and CCK-8 solution.

T1 sequence (C7FF04 1-392): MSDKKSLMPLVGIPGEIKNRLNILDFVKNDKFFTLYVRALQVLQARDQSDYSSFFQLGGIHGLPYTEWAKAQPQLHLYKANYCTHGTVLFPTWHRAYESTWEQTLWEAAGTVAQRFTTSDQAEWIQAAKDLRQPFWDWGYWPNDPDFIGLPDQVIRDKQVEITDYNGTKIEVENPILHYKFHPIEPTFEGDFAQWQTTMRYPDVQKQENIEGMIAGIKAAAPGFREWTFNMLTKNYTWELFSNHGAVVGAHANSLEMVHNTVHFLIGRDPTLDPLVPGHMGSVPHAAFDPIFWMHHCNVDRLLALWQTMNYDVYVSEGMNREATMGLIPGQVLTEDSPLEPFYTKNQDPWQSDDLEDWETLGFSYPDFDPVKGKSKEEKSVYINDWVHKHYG

The inhibition is the drop in the measured response relative to a control, in per cent. The term IC50 denotes the concentration that inhibits the measured activity by half. Low values mean greater potency in that assay, high ones weaker potency in that assay. On to `O=C(C=Cc1ccc(O)c(O)c1)OCC1OC(Oc2ccc(O)cc2)C(O)C(O)C1O` (stereo not shown) [6′-O-caffeoylarbutin], for which the “oxidation products of L-DOPA (HPLC)” value in assay [1] is recorded as “significantly decrease”. For the same compound, the “reduction of the peak of the fluorescence emission spectrum of mTyr” value in assay [2] (25 μM) worked out at 37.18%. In assay [2] (100 μM), the “decrease in the fluorescence emission spectrum of mTyr” value was found to be 12.57%. Further, the “quenching rate constant Kq” value in assay [2] (Stern-Volmer, 37 °C) is 4.11e+12 L·mol/s. In assay [2] (double-logarithmic regression), the apparent binding constant Ka was 108000 L/mol and the “number of binding sites n” value stood at 0.79 ± 0.06. Moreover, the inhibition rate result in assay [3] (3.125–100 μg∙mL^−1, 72 h) is “below 3%”. For the same compound, in assay [3] (Homo sapiens, 200 μg∙mL^−1, 72 h, read-out: inhibition rate), the inhibition at 200 µg/mL is 3.6%. In addition, the inhibition at 400 µg/mL in assay [3] (Homo sapiens, 400 μg∙mL^−1, 72 h, read-out: inhibition rate) stood at 14.5%. In addition, the IC50 in assay [3] (Homo sapiens, 72 h, CCK-8) is > 400 µg/mL.
